# Experimental data from article PMC10347550, “Cyclic Ruthenium-Peptide Conjugates as Integrin-Targeting Phototherapeutic Prodrugs for the Treatment of Brain Tumors” (Journal of the American Chemical Society, 2023).
# Key:
# subcutaneous U87MG tumor = assay: In vivo tumor inhibition study; design: species or system mice; conditions: for TUNEL staining of tumor slices: day 7, combined with 520 nm laser irradiation; for effect of light irradiation on tumor growth, light group compared to dark group: single i.v. dose day 0 ([1]Cl2 7.7 mg/kg, [2]Cl2 5 mg/kg), 520 nm laser 60 J/cm^2 at DLI 12 h, tumor volume over 15 days
# Protocol: (§1) All animal studies were approved by the Institutional Animal Care and Use Committee of the US National Institutes of Health and were performed according to the relevant guidelines (8th edition, 2011). Female BALB/c nude mice (6 weeks old) were purchased from Shanghai SLAC Laboratory Animal Co. LTD (Shanghai, China). Tumor-bearing mice were obtained by subcutaneously injecting U87MG tumor cells (2 × 10^6 cells per mouse, dispersed in 100 μL of FBS) into the right hind limb and waiting for 15 days until the tumor volume reached 50–100 mm^3.
# The mice bearing U87MG solid tumors were first randomly divided into 6 groups (N = 5): PBS, light, [1]Cl2, [2]Cl2, [1]Cl2 + light, and [2]Cl2 + light. The injectable solution of [1]Cl2 or [2]Cl2 was obtained by diluting the stock solution of the compound in DMSO (10 mg/mL) 10 times by RPMI-1640 medium containing 10% FBS, 100 units/mL penicillin, and 100 μg/mL streptomycin. The injection doses of [1]Cl2 and [2]Cl2 were set as 7.7, 5 mg/kg, respectively (injection volume = 100 μL of the same molar weight of Ru in the last four groups). In groups 2, 5, and 6, laser irradiation (520 nm, 100 mW/cm^2, 5 min) was carried out twice at 12 h post-injection, with a 5 min interval. Accordingly, the total laser dose for each illumination was 100 mW/cm^2, 10 min, and 60 J/cm^2. Treatments in all groups were carried out only once on day 0. Digital photos of tumor-bearing mice, the tumor size (length and width, measured with a caliper), and mouse body weight in all groups were recorded every third day. The tumor volume was calculated according to the standard formula: 0.5 × length × width^2. Both the average tumor volume and body weight were followed for 15 days. On day 7, one mouse from each group was sacrificed and then the tumor tissue was dissected and fixed with 10% paraformaldehyde. The tumor cell damage and apoptosis and necrosis conditions were evaluated by H&E or TUNEL stained protocols. On day 15 (the end of the tumor treatment period), all nude mice were humanly sacrificed, and the main organs (heart, liver, spleen, kidney, and lung) and tumors were resected. Digital photographs of tumors in each group were immediately obtained. All normal tissues were fixed with 10% paraformaldehyde and further analyzed in accordance with the H&E staining protocol, to estimate their off-target side effect after various treatments.
# [1] = Biodistribution of Ru by ICP-OES; type: in vivo, mice; conditions: for Ru content, Heart / Ru content, Kidney / Ru content, Liver / Ru content, Lung / Ru content, Spleen / Ru content, Tumor: U87MG tumor-bearing nude mice, ICP-OES, n = 3, ± SD
# Protocol: as §1
# The Blab/c nude mice bearing U87MG tumors were randomly assigned to two groups (N = 15) and received an intravenous injection of [1]Cl2 (7.7 mg/kg) or [2]Cl2 (5 mg/kg) at the same molar dose. Then, the mice were sacrificed at 2, 6, 12, 18, and 24 h post-injection (each time point contained 3 mice). The main organs (heart, liver, spleen, kidney, lung) and tumor tissue were dissected. Then, around 1 g of organs and tumors was lysed in a 7 mL mixture solution containing 5 mL of 65% HNO3 and 2 mL of 30% (w/w) H2O2 at 100 °C. After 12 h, all solutions had evaporated, and 5 mL of aqueous solution containing 2% HNO3 was added. The Ru content in all samples was measured by ICP-OES (JY-Horiba ICP-OES Ultima 2).
# U87MG cells = assay: 2D cytotoxicity assay, 24 h DLI & no wash, SRB endpoint; type: cell-based, human; conditions: normoxic 2D monolayer U87MG; for PI: mixture of Δ and Λ isomers (Figure S34a); for EC50: mixture of Δ and Λ isomers, green light 520 nm, 13.1 J/cm^2 (Figure S34a), read-out: EC50,light
# Protocol: For each complex, two identical plates were prepared, one of which was irradiated with light, while the other was used as a dark control. […] Finally, at t = 96 h, 100 μL of cold trichloroacetic acid (10% w/v) was added to each well to fix the cells, and all plates were then transferred to a 4 °C refrigerator for 48 h before performing an SRB cell quantification endpoint assay.[72] Trichloroacetic acid was first removed and each plate was gently washed with demi water 3–5 times. Then, each well was dried in the air, and 100 μL of 0.6% SRB solution (0.6% w/v in 1% v/v acetic acid/H2O solution) was added into each well where it was allowed to stain for 30 min. Then, the plates were washed 3–5 times using an acetic acid solution (1% v/v). Once the plate was washed it was allowed to dry overnight. Then, 200 μL of 10 mM Tris base buffer was added to each well and the plate was allowed to sit on an orbital shaker for 0.5–16 h. After mixing, the absorbance of each well was determined by an M1000 Tecan Reader, reading at 510 nm. All experiments were conducted in independent biological triplicate. The obtained data were analyzed with Graphpad Prism 5 using the dose–response two-parameter Hill slope equation (eq 1) to obtain the half-maximal effective concentrations EC50 (defined as the concentration of drug that kills 50% of cells, compared to the untreated control). [drawing 1] 1
# [2] = Nanoaggregation in Opti-MEM by DLS and TEM; type: physicochemical; conditions: 50 μM in Opti-MEM with 2.5% FCS, dark, 24 h (Figure S20)
# Protocol: DLS was used to determine the distribution of particles in complex solutions (50 μM) in Opti-MEM (Gibco complete medium 11058-021, supplemented with 0.2% v/v penicillin/streptomycin (P/S), and 1% v/v glutamine) with or without 2.5% fetal calf serum (FCS) proteins via a ZEN1600 Zetasizer Nano instrument (Malvern Instruments Limited) operated with a 633 nm laser.
# The TEM experiments were carried out with a TEM JEOL 1010:100 kV transmission electron microscope using a Formvar/carbon-coated copper grid (Polysciences Inc.). For the preparation of samples, a 1 mM stock aqua solution was diluted to 50 μM by Opti-MEM, after which, each drop (15 μL) of the complex solution was deposited on a parafilm (Bemis, HS234526C). The grids (Electron Microscopy Sciences, 71137) were placed on top of the drops for 5 min and then the excess liquid on the grid was removed with filter paper and air dried for 2 h for the TEM measurement. The TEM measurements were carried out under vacuum conditions.
# [3] = 2 h after i.v. injection of [1]Cl2 7.7 mg/kg or [2]Cl2 5 mg/kg
# [4] = 6 h after i.v. injection of [1]Cl2 7.7 mg/kg or [2]Cl2 5 mg/kg
# [5] = 12 h after i.v. injection of [1]Cl2 7.7 mg/kg or [2]Cl2 5 mg/kg
# [6] = 18 h after i.v. injection of [1]Cl2 7.7 mg/kg or [2]Cl2 5 mg/kg
# [7] = 24 h after i.v. injection of [1]Cl2 7.7 mg/kg or [2]Cl2 5 mg/kg
Molecule,TUNEL staining of tumor slices (subcutaneous U87MG tumor),"effect of light irradiation on tumor growth, light group compared to dark group (subcutaneous U87MG tumor; n = 5)","Ru content, Heart [1, 3]","Ru content, Kidney [1, 3]","Ru content, Liver [1, 3]","Ru content, Lung [1, 3]","Ru content, Spleen [1, 3]","Ru content, Tumor [1, 3]","Ru content, Heart [1, 4]","Ru content, Kidney [1, 4]","Ru content, Liver [1, 4]","Ru content, Lung [1, 4]","Ru content, Spleen [1, 4]","Ru content, Tumor [1, 4]","Ru content, Heart [1, 5]","Ru content, Kidney [1, 5]","Ru content, Liver [1, 5]","Ru content, Lung [1, 5]","Ru content, Spleen [1, 5]","Ru content, Tumor [1, 5]",other results
"[Ru(Ph2phen)2(κ^S,κ^N-(Ac-MRGDH-NH2))]Cl2 (sidechain bridge or staple) [[1]Cl2, mixture of diastereoisomers used for the in vivo study]",induced outstanding apoptosis of tumor cells,much stronger tumor growth suppression,2.2 ± 0.4 %ID/g,3.2 ± 0.3 %ID/g,40.2 ± 2.8 %ID/g,1.5 ± 0.2 %ID/g,1.9 ± 0.1 %ID/g,2.0 ± 0.5 %ID/g,1.8 ± 0.3 %ID/g,2.0 ± 0.2 %ID/g,29.0 ± 1.6 %ID/g,1.6 ± 0.2 %ID/g,2.1 ± 0.5 %ID/g,7.3 ± 0.4 %ID/g,1.8 ± 0.2 %ID/g,1.7 ± 0.3 %ID/g,16.5 ± 3.5 %ID/g,1.6 ± 0.2 %ID/g,2.2 ± 0.4 %ID/g,15.7 ± 1.3 %ID/g,"antitumor efficiency compared to [2]Cl2 + light (subcutaneous U87MG tumor; single i.v. dose 7.7 mg/kg + 520 nm laser 60 J/cm^2 at DLI 12 h, 15 days, n = 5): better antitumor efficiency; amount of ruthenium in the tumor higher than for the group treated with [2]Cl2 ([1]; 12 h after i.v. injection, same molar dose, P < 0.01): 28%; Ru content, Heart [1, 6]: 1.9 ± 0.2 %ID/g; Ru content, Kidney [1, 6]: 1.9 ± 0.2 %ID/g; Ru content, Liver [1, 6]: 14.4 ± 4.3 %ID/g; Ru content, Lung [1, 6]: 1.8 ± 0.3 %ID/g; Ru content, Spleen [1, 6]: 1.9 ± 0.3 %ID/g; Ru content, Tumor [1, 6]: 7.2 ± 0.5 %ID/g; Ru content, Heart [1, 7]: 1.8 ± 0.1 %ID/g; Ru content, Kidney [1, 7]: 1.8 ± 0.2 %ID/g; Ru content, Liver [1, 7]: 6.1 ± 1.2 %ID/g; Ru content, Lung [1, 7]: 1.7 ± 0.2 %ID/g; Ru content, Spleen [1, 7]: 1.7 ± 0.2 %ID/g; Ru content, Tumor [1, 7]: 4.1 ± 1.0 %ID/g; PI (U87MG cells): 16; EC50 (U87MG cells): 2400 nM"
"CSCc1ccccn1.[Cl-].[Cl-].[Ru+2].c1ccc(-c2ccnc3c2ccc2c(-c4ccccc4)ccnc23)cc1.c1ccc(-c2ccnc3c2ccc2c(-c4ccccc4)ccnc23)cc1 [[2]Cl2, rac-[Ru(Ph2phen)2(mtmp)]Cl2, reference compound]",induced outstanding apoptosis of tumor cells,statistically nonsignificant,2.0 ± 0.3 %ID/g,3.2 ± 0.4 %ID/g,40.5 ± 3.3 %ID/g,1.5 ± 0.3 %ID/g,4.6 ± 0.4 %ID/g,1.8 ± 0.3 %ID/g,1.9 ± 0.5 %ID/g,2.0 ± 0.4 %ID/g,29.5 ± 1.9 %ID/g,1.6 ± 0.2 %ID/g,2.2 ± 0.5 %ID/g,6.5 ± 0.5 %ID/g,1.8 ± 0.3 %ID/g,1.7 ± 0.2 %ID/g,16.3 ± 3.3 %ID/g,1.7 ± 0.2 %ID/g,2.2 ± 0.3 %ID/g,12.3 ± 1.5 %ID/g,"nanoparticle formation (DLS) [2]: not; Ru content, Heart [1, 6]: 1.7 ± 0.2 %ID/g; Ru content, Kidney [1, 6]: 1.9 ± 0.2 %ID/g; Ru content, Liver [1, 6]: 14.6 ± 2.3 %ID/g; Ru content, Lung [1, 6]: 1.7 ± 0.1 %ID/g; Ru content, Spleen [1, 6]: 1.6 ± 0.2 %ID/g; Ru content, Tumor [1, 6]: 2.8 ± 0.6 %ID/g; Ru content, Heart [1, 7]: 1.7 ± 0.2 %ID/g; Ru content, Kidney [1, 7]: 1.5 ± 0.1 %ID/g; Ru content, Liver [1, 7]: 7.3 ± 0.8 %ID/g; Ru content, Lung [1, 7]: 1.7 ± 0.1 %ID/g; Ru content, Spleen [1, 7]: 1.7 ± 0.2 %ID/g; Ru content, Tumor [1, 7]: 1.7 ± 0.1 %ID/g; PI (U87MG cells): 6; EC50 (U87MG cells): 300 nM"
